Tests used:
[1] = target: 72 kDa type IV collagenase (Homo sapiens, UniProt P08253); experiment: Binding affinity to MMP2
[2] = target: Matrix metalloproteinase-9 (Homo sapiens, UniProt P14780); experiment: Binding affinity to MMP9
[3] = target: Macrophage metalloelastase (Homo sapiens, UniProt P39900); experiment: Binding affinity to MMP12
[4] = target: T1, Interstitial collagenase (Homo sapiens, UniProt P03956); experiment: Binding affinity to MMP1
T1 sequence (P03956 whole entry): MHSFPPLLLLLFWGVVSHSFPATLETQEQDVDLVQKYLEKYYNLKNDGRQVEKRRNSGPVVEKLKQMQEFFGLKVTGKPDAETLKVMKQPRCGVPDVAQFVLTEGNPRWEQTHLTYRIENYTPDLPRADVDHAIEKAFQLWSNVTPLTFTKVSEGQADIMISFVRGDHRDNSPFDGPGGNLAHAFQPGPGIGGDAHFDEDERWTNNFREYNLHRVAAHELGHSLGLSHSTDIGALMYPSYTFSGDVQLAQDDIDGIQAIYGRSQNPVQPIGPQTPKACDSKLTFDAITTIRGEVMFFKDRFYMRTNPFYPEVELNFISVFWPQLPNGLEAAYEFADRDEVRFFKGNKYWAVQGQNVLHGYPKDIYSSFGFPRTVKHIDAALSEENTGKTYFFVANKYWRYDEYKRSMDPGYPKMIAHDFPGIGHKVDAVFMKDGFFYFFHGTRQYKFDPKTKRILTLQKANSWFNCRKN

[5] = target: Collagenase 3 (Homo sapiens, UniProt P45452); experiment: Binding affinity to MMP13
[6] = target: Stromelysin-1 (Homo sapiens, UniProt P08254); experiment: Binding affinity to MMP3
Stromelysin-1, sequence (P08254 whole entry): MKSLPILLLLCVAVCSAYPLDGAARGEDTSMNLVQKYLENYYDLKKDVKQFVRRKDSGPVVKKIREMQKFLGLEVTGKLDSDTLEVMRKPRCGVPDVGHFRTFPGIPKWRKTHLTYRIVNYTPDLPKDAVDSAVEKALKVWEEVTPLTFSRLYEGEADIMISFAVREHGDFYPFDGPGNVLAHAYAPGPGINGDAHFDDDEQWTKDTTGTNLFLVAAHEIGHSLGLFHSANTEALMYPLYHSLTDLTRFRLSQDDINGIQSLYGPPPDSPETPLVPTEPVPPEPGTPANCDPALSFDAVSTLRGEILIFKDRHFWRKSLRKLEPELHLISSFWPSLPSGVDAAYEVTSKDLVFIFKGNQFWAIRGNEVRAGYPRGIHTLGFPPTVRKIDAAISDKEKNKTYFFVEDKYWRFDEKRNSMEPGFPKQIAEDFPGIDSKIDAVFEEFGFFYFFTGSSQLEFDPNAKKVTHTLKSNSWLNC

[7] = target: T2, Matrilysin (Homo sapiens, UniProt P09237); experiment: Binding affinity to MMP7
T2 sequence (P09237 whole entry): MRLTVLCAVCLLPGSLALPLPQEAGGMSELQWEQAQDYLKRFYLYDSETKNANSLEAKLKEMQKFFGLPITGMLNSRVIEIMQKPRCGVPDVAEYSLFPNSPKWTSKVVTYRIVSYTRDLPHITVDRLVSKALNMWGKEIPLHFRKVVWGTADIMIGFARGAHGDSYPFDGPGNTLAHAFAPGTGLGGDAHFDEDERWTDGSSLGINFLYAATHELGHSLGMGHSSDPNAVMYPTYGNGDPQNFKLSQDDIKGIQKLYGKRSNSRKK

Macrophage metalloelastase, sequence (P39900 whole entry): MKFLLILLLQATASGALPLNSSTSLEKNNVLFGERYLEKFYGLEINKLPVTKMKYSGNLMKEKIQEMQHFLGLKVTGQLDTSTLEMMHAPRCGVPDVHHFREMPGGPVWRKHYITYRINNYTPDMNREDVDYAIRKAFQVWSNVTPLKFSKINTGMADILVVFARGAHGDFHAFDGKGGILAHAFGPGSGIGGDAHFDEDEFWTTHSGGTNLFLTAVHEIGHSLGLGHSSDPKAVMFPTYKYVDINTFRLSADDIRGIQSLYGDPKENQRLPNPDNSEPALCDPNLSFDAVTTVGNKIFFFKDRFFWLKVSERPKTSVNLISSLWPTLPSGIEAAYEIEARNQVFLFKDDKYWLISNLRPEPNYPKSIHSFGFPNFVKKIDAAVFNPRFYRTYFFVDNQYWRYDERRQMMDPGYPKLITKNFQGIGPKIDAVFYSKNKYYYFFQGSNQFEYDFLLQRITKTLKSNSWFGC
Matrix metalloproteinase-9, sequence (P14780 whole entry): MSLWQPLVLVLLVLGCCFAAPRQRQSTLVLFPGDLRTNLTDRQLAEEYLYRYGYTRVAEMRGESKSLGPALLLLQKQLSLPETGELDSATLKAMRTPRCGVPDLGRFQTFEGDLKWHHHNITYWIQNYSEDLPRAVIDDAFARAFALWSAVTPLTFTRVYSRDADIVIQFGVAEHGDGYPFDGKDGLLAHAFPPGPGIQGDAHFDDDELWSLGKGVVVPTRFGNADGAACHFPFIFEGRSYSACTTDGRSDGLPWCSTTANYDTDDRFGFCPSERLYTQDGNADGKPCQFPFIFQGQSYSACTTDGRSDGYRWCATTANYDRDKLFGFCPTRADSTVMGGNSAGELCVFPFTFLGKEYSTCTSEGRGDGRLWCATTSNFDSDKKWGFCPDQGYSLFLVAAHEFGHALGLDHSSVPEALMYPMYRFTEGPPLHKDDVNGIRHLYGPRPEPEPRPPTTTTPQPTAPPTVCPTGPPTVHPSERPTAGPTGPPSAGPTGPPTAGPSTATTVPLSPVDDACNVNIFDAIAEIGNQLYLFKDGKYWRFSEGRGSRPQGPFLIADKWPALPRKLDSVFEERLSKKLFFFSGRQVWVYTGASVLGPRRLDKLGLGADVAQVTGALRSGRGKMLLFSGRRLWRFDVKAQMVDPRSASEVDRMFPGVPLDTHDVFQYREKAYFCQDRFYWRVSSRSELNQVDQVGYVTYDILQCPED
72 kDa type IV collagenase, sequence (P08253 whole entry): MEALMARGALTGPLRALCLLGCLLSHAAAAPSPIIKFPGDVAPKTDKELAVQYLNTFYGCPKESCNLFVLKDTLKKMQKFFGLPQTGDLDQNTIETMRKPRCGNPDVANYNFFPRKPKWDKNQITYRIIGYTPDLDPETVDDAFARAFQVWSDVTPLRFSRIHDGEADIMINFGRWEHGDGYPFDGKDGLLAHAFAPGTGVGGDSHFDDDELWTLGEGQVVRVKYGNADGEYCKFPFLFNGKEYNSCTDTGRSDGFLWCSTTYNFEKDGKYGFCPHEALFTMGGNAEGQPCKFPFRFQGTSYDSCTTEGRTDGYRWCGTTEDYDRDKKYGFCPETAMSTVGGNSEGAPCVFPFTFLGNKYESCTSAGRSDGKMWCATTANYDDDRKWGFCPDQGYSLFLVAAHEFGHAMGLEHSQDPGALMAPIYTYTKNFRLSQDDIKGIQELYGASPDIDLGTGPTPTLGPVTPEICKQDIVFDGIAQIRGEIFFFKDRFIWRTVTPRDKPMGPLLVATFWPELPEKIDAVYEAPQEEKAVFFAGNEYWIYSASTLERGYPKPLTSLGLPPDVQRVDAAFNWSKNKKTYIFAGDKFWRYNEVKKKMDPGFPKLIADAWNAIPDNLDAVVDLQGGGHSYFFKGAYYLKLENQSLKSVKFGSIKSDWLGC

Cc1cc(COc2ccc(C(=O)NCc3n[nH]c(=O)[nH]3)cc2)c2ccccc2n1 was tested, and the Ki [1] was over 3.33 µM, the Ki [2] was over 2.13 µM and the Ki [3] was over 5.03 µM. The Ki [4] was over 4.95 µM.

For Cc1cc(COc2ccc(S(=O)(=O)NCc3n[nH]c(=O)[nH]3)cc2)c2ccccc2n1, the Ki [1] was 2.47 µM, the Ki [5] was over 5.03 µM and the Ki [6] was 0.567 µM. It also gave a Ki [3] of 4.12 µM and a Ki [7] of 1 µM.

For Cc1cc(COc2ccc(C(=O)Nc3ccccc3Cc3n[nH]c(=O)[nH]3)cc2)c2ccccc2n1, the Ki [1] was over 3.33 µM, the Ki [5] was 4.31 µM and the Ki [6] was over 4.5 µM. For the same compound, the Ki [3] was 3.61 µM and the Ki [7] was over 6.37 µM.

With Cc1cc(COc2ccc(C(=O)Nc3ccccc3Cc3c[nH]c(=O)[nH]3)cc2)c2ccccc2n1 the Ki [1] was over 3.33 µM, the Ki [5] was over 5.03 µM and the Ki [6] was over 4.5 µM. For the same compound, the Ki [3] was over 6.02 µM and the Ki [7] was over 6.37 µM.

Work on Cc1cc(COc2ccc(C(=O)Nc3ccccc3C(=O)c3c[nH]c(=O)[nH]3)cc2)c2ccccc2n1 yielded a Ki [1] of over 3.33 µM, a Ki [5] of 4.31 µM and a Ki [6] of over 4.5 µM. It also gave a Ki [3] of over 6.02 µM and a Ki [7] of over 6.37 µM.

With Cc1cc(COc2ccc(C(=O)NCC3(C)NC(=O)NC3=O)cc2)c2ccccc2n1 (stereo unspecified) the Ki [1] was over 3.33 µM, the Ki [2] was over 2.13 µM and the Ki [3] was over 5.03 µM. The Ki [4] was over 4.95 µM.

Cc1cc(COc2ccc(C(=O)Nc3ccccc3C3NC(=O)NC3=O)cc2)c2ccccc2n1 (stereo unspecified) gave a Ki [1] of over 3.33 µM, a Ki [5] of over 5.03 µM and a Ki [6] of over 4.5 µM. The Ki [3] was 0.782 µM and the Ki [7] was over 6.37 µM.

Cc1cc(COc2ccc(S(=O)(=O)NCC3(C)NC(=O)NC3=O)cc2)c2ccccc2n1 (stereo unspecified) was tested, and the Ki [1] was over 3.33 µM, the Ki [2] was over 2.13 µM and the Ki [3] was over 5.03 µM. For the same compound, the Ki [4] was over 4.95 µM.

In the case of Cc1cc(COc2ccc(C(=O)N[C@H]3CN(C(=O)OC(C)(C)C)C[C@@H]3c3n[nH]c(=O)[nH]3)cc2)c2ccccc2n1, the Ki [1] is reported as over 3.33 µM, the Ki [2] is reported as over 2.13 µM and the Ki [3] is reported as over 5.03 µM. For the same compound, the Ki [4] was over 4.95 µM.
